In ChEMBL document CHEMBL1201862, “PubChem BioAssay data set” (2004):
Active and inactive are the calls of the source. For most assays here, no stated cut-off is given here; in the data, actives have a measured EC50 and inactives only a lower limit.

Columns and labels:
[1] = molecular target: T1, Ubiquitin-conjugating enzyme E2 N (Homo sapiens, UniProt P61088); type: functional;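 further: Dose-response confirmation in a TR-FRET assay detecting UBC13-driven polyubiquitin chain formation, inhibition measured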
T1 sequence (P61088 whole entry): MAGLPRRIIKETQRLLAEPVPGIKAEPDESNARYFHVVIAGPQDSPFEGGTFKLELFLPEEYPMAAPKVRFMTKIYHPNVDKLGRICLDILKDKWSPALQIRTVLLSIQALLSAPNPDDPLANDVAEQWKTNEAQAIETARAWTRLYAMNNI

[2] = system: H9c2; assay: cells; type: functional, cell-based; details: Rattus norvegicus, H9c2, Myocardium;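 further: confirmatory concentration-response retest of ultra-high-throughput screening hits for modulation of myocardial damage; cell death induced by hydrogen peroxide oxidative stress; compound pretreatment for 60 min then peroxide exposure for 2 h; potency is for protecting the cells against peroxide damage rather than for killing them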
[3] = molecular target: T2, RNA-binding protein pos-1 (Caenorhabditis elegans, UniProt G5EF15); assay: disruptors of C. elegans POS-1 RNA interaction – biochemical, fluorescence polarization, dose response (AID 1964);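 further: purified POS-1 fused to maltose binding protein made in E. coli; potency of compounds blocking POS-1 binding to fluorescent RNA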
T2 sequence (G5EF15 whole entry): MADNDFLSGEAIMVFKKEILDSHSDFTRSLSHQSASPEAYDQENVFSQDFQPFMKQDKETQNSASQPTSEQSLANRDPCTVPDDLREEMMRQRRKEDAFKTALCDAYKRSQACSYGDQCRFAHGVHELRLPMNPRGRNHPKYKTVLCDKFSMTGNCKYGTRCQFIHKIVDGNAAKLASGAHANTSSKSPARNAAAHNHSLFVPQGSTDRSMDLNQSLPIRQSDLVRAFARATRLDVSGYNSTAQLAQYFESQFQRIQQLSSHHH

[4] = molecular target: T3, Zinc finger protein mex-5 (Caenorhabditis elegans, UniProt Q9XUB2); assay: potency of MEX-5 RNA-binding blockers – biochemical, C. elegans, fluorescence polarization, dose response (AID 1960)
T3 sequence (Q9XUB2 whole entry): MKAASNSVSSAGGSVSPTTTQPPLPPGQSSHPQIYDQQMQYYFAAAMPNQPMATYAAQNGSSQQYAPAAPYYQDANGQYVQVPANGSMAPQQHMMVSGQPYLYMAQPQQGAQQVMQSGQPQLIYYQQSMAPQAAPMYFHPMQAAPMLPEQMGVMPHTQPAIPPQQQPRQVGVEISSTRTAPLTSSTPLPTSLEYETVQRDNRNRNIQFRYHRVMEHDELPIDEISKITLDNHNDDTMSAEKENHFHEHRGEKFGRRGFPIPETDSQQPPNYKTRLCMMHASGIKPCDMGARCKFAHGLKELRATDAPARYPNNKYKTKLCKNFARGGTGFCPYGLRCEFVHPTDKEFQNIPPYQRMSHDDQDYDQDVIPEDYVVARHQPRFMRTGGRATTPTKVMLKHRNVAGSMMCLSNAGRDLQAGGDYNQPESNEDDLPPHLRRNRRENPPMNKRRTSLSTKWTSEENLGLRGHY

[5] = Luminescence Cell-Based Dose Response HTS to Identify Activators of Luciferase Translation or Activity in H4 […] Cells. [Related pubchem assays: 1829 (Project Summary), 1814 (Primary HTS)]; type: functional
[6] = system: H4; assay: Luminescence Cell-Based Dose Response HTS to Identify Activators of 5'UTR Stem-Loop Driven Prion Protein mRNA Translation in H4 Neuroglioblastoma Cells. [Related pubchem assays: 1829 (Project Summary), 1814 (Primary HTS)]; type: functional; details: Homo sapiens
[7] = Luminescence Cell-Based Dose Confirmation HTS to Identify Activators of 5'UTR Stem-Loop Driven Alpha-Synuclein mRNA Translation in H4 Neuroglioblastoma Cells. [Related pubchem assays: 1829 (Project Summary), 1814 (Primary HTS)]; type: functional
[8] = molecular target: FAD-linked sulfhydryl oxidase ALR (Homo sapiens, UniProt P55789); assay: ALR-catalysed DTT oxidation blockers – biochemical, H2O2 detection, luminescence, cherry-pick, dose response (AID 493248)
[9] = molecular target: Luciferin 4-monooxygenase (Photinus pyralis, UniProt P08659); assay: inhibition of purified Photinus pyralis luciferase – biochemical, luminescence, dose response (AID 1891)
[10] = Luminescence Cell-Based Dose Confirmation HTS to Identify Inhibitors of Platelet Dense Granule Release. [Related pubchem assays: 1663 (Primary HTS), 1678 (Summary of Project)]; type: functional
[11] = system: Streptococcus; assay: GAS UMAA2166 growth inhibition – luminescence, BacTiterGlo, counter-screen for streptokinase expression inhibitor project, dose response (AID 1915); type: functional, organism-based;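 further: potency for reduction of bacterial viability or growth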
[12] = molecular target: T4, Streptokinase A (Streptococcus pyogenes serotype M1, UniProt P10520); assay: viability-normalized secreted streptokinase activity reduction – plasminogen activation absorbance, OD405, dose response (AID 1914); type: functional, Streptococcus pyogenes M1 GAS;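 further: secreted streptokinase activity via plasminogen activation per viability signal from cell pellet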
T4 sequence (P10520 whole entry): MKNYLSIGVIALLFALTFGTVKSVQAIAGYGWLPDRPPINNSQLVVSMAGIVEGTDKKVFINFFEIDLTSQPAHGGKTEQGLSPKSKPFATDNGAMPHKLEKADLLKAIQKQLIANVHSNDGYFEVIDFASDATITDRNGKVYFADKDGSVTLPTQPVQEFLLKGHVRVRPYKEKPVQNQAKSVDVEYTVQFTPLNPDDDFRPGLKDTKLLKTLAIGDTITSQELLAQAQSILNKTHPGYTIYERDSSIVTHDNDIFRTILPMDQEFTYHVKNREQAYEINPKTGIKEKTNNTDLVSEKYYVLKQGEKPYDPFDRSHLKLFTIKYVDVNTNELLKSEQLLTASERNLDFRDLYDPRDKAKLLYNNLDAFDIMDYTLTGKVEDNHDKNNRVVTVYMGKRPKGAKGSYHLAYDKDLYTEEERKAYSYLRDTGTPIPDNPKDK

[13] = system: Streptococcus sp. 'group A'; assay: Streptococcus pyogenes SK(-)GAS viability under kanamycin – luminescence, BacTiterGlo, confirmation, counter-screen for streptokinase expression inhibitor project, dose response (AID 1900); type: functional, organism-based
[14] = system: BJ; assay: BJ-TERT fibroblast viability loss – cell-based, RAS-independent, luminescence, dose response (AID 1933); type: functional; details: Homo sapiens
[15] = DRD fibroblast viability loss – cell-based, non-viral oncogenic, luminescence, dose response (AID 1934); type: functional; details: Homo sapiens
[16] = system: BJ; assay: cells; type: functional, cell-based; details: Homo sapiens
[17] = molecular target: T5, Heat shock factor protein 1 (Mus musculus, UniProt P38532); assay: decrease of HSF1-responsive luciferase luminescence – cell-based, NIH3T3, dose retest, confirmation (AID 2382); type: functional;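 further: NIH3T3 fibroblasts with HSF1-driven luciferase reporter stressed by proteasome inhibitor MG132; luminescence from HSF1-driven luciferase expression after 8 hours of MG132 stress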
T5 sequence (P38532 whole entry): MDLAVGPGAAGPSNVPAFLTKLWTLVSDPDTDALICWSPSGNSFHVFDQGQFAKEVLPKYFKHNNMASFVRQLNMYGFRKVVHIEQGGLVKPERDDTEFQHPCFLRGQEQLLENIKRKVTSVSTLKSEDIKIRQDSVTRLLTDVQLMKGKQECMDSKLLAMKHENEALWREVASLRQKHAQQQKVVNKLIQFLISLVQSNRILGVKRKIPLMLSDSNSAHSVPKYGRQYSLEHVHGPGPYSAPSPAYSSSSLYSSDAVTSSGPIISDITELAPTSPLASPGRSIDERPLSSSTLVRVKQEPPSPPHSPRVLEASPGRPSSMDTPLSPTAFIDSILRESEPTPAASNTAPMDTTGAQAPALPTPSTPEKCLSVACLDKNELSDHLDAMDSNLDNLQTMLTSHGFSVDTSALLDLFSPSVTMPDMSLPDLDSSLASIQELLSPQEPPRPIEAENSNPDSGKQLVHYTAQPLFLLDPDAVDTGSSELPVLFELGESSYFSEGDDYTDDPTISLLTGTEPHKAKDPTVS

[18] = reduction of Shn3 3'UTR-driven luciferase in osteoblasts – cell-based, Clone20 osteoblasts, firefly luciferase, cherry-picked, dose response (AID 624132); type: functional;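 further: firefly luciferase luminescence from reporter carrying the Shn3 3'UTR in osteoblasts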
[19] = molecular target: T6, Corticotropin-releasing factor receptor 2/Corticotropin-releasing factor-binding protein (Homo sapiens, UniProt P24387+Q13324); assay: activators of CRF receptor 2 with binding protein – uHTS hits, confirmation (AID 602473); type: functional; details: read-out: EC50_Mean
T6 sequence (Q13324 whole entry): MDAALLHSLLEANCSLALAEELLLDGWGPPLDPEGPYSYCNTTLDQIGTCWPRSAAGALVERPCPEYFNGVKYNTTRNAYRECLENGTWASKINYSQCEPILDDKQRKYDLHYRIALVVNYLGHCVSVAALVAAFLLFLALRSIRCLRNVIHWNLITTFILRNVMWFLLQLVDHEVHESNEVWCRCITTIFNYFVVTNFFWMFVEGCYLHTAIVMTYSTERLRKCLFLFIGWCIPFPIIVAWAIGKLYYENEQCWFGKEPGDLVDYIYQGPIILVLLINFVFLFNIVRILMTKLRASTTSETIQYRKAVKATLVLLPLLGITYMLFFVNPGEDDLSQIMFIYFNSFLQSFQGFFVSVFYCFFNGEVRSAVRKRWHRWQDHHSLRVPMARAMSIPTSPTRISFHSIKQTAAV
T6 sequence (P24387 whole entry): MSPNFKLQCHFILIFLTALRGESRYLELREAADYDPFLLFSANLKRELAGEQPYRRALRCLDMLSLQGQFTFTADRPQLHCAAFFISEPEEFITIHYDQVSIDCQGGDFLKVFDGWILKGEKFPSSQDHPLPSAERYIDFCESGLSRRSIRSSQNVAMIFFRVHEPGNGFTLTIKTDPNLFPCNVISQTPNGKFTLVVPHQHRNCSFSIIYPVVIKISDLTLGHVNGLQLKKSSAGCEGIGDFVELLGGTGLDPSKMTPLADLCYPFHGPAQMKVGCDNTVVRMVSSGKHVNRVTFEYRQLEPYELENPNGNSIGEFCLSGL

[20] = molecular target: T6, Corticotropin-releasing factor receptor 2/Corticotropin-releasing factor-binding protein; assay: Dose Response confirmation of uHTS hits for small molecule antagonists of the CRF-binding protein and CRF-R2 receptor complex.; type: functional; details: read-out: IC50_Mean

Luciferin 4-monooxygenase, sequence (P08659 whole entry): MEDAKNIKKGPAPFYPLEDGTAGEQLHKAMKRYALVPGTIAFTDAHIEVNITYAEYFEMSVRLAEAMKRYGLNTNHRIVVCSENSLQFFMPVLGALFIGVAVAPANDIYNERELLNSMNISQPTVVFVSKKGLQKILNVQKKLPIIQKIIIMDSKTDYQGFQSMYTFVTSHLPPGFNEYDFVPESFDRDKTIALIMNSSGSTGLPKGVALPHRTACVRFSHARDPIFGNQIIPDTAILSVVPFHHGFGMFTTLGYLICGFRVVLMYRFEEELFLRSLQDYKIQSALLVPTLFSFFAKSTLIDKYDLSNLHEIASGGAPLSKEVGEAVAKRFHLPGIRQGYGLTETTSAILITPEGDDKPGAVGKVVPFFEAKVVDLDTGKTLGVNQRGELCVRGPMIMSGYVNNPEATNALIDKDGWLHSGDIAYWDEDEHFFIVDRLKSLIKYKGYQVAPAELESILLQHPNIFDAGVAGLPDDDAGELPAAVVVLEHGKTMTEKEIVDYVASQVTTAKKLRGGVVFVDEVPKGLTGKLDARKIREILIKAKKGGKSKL
FAD-linked sulfhydryl oxidase ALR, sequence (P55789 whole entry): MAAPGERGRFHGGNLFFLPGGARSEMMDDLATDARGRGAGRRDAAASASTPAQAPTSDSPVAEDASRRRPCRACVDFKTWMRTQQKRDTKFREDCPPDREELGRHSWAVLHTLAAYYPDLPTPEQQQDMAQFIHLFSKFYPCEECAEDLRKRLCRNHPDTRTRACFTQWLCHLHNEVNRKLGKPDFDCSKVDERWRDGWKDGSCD

O=C1c2cccc3cccc(c23)C(=O)N1Nc1ccccc1
IC50 [1]: > 20 µM (inactive)

CCSc1nnc(NC(=O)C2Cc3ccccc3CN2S(=O)(=O)CC)s1 (configuration not stated)
IC50 [2]: 10 µM (active)

CC(=O)Nc1cc(C)nn1-c1nc2ccccc2s1
IC50 [2]: 11.6 µM (active)

CC(=O)N(C)c1ccc(N=NC2C(=O)N(C(N)=S)N=C2C)cc1 (configuration not stated)
EC50 [3]: > 300 µM (not active) | EC50 [4]: 34.6 µM (active)

Cc1c(O)ccc2c3c(c(=O)oc12)CCC(C)C3 (configuration not stated)
IC50 [2]: > 79 µM (inactive)

COc1ccccc1N1C(=O)NC(=O)/C(=C\c2c[nH]c3ccccc23)C1=O
EC50 [3]: > 300 µM (not active) | EC50 [4]: > 300 µM (not active)

CCOC(=O)COc1cccc(C2NC(=O)c3ccccc3O2)c1 (configuration not stated)
IC50 [2]: 12.7 µM (active)

COc1cc2c(cc1NC(=O)CSc1ccccn1)oc1ccccc12
EC50 [5]: 15 µM (active) | EC50 [6]: 30.4 µM (active) | EC50 [7]: 10.9 µM (active)

CN(C)CC(O)COc1ccc(C(C)(C)c2ccc(OCC(O)CN(C)C)cc2)cc1 (configuration not stated)
IC50 [1]: > 20 µM (inactive)

CC1CCCCC1NC(=O)c1ccc(S(=O)(=O)NNC(=O)c2ccncc2)cc1 (configuration not stated)
AC50 [8]: 2.99 µM (active)

CC(=O)Oc1ccc(-c2cc3ccc(OC(C)=O)cc3oc2=O)cc1
EC50 [9]: > 112 µM (not active)

CCOC(=O)c1c(NC(=O)Nc2ccc(F)cc2)sc2c1CCN(C)C2
EC50 [3]: 27.7 µM (inconclusive) | EC50 [4]: 39.8 µM (active)

CN(C)c1ccc(NC(=O)CCn2c(=S)oc3ccccc32)cc1
AC50 [8]: 14.6 µM (active)

O=C(NC1CCCCC1)N(C1=NCCCCC1)c1ccc(Br)cc1
EC50 [10]: > 112 µM (not active) | EC50 [9]: > 112 µM (not active)

O=C(NNC(=O)c1ccccc1OCc1ccccc1Cl)c1csc(N2CCOCC2)n1
EC50 [11]: > 150 µM (not active) | EC50 [12]: > 150 µM (not active) | IC50 [2]: 12.8 µM (active) | EC50 [13]: 12.8 µM (active)

COc1ccc(CC(=O)N(C)CC(=O)Nc2ccccc2Cl)cc1S(=O)(=O)N1CCOCC1
IC50 [1]: > 20 µM (inactive)

CCC(=O)OC1(C)C(=O)C=C2C=C(c3ccsc3)OC=C2C1=O (configuration not stated)
EC50 [3]: 34.1 µM (active) | EC50 [4]: 32.5 µM (active)

Sc1nc2ccccc2c2ccccc12
IC50 [2]: 31.5 µM (inactive)

Cc1nc(-c2ccccn2)nc(S)c1Cl
IC50 [2]: > 79 µM (inactive)

O=C(NN1C(=O)c2ccc3c4c(ccc(c24)C1=O)CC3)c1ccc(Br)cc1
IC50 [1]: > 20 µM (inactive)

CCc1nnc2n1N=C(c1ccc([N+](=O)[O-])cc1)CS2
AC50 [8]: 6.01 µM (active)

O=C(CSc1ccc2nnc(-c3ccc(F)cc3)n2n1)N1CCCc2ccccc21
IC50 [2]: > 79 µM (inactive)

CCCCn1c(-c2cccs2)nc2nc3ccccc3nc21
IC50 [1]: > 20 µM (inactive)

CCc1ccc(/C=C2\SC(=S)N(CCC(=O)NCCCN3CCOCC3)C2=O)cc1
EC50 [14]: 1.24 µM (active) | EC50 [15]: 5.87 µM (active) | EC50 [16]: > 150 µM (not active)

CCN=C(S)N(C)CCc1cc2c(c(OC)c1C=C1C(=O)N(C)C(=O)N(C)C1=O)OCO2
EC50 [17]: > 195 µM (not active) | EC50 [3]: > 300 µM (not active) | EC50 [4]: > 300 µM (not active)

CCC(C)NC(=O)c1cc(-c2ccccc2O)on1 (configuration not stated)
EC50 [10]: > 112 µM (not active) | EC50 [9]: > 112 µM (not active)

CCNC(C(=O)c1c[nH]c2c(CC)cccc12)c1ccccc1 (configuration not stated)
IC50 [1]: > 20 µM (inactive)

CCC(=O)N1CCN=C1SCc1cccc(C(F)(F)F)c1
AC50 [8]: 4.38 µM (active)

Nc1nnc(SCC(=O)Nc2ccc(N3CCOCC3)cc2)s1
AC50 [18]: 16.8 µM (active)

N#Cc1ccccc1OCC(=O)Nc1nc(-c2ccccn2)cs1
IC50 [2]: > 79 µM (inactive)

CC1(C)CC(=O)C2=C(C1)OC(/N=C/N1CCCC1)=C(C#N)C2c1ccccc1 (configuration not stated)
EC50 [19]: > 53 µM (inactive) | IC50 [20]: > 47.1 µM (inactive) | EC50 [3]: > 300 µM (not active) | EC50 [4]: > 300 µM (not active)

COc1cc(/C=N/N2C(C)CCCC2C)cc(OC)c1O (configuration not stated)
AC50 [8]: 1.1 µM (active)

COc1cc(/C=N/NC(=O)c2cccc(S(=O)(=O)N3CCCC3)c2)cc(OC)c1O
AC50 [8]: 0.039 µM (active)

Cc1ccc(CN2CCN(/N=C/c3ccc(O)c(O)c3)CC2)cc1
AC50 [8]: 3.11 µM (active)
